These results are taken from article PMC10167348, “Structural mechanisms of TRPM7 activation and inhibition” (Nature Communications, 2023).

One data set has as its target T1, TRPM7 WT (Mus musculus, UniProt Q923J1).
T1 construct: expressed in transfected cells; host or cells: HEK 293T
Kind of data set: Aequorin-based Ca2+ influx assay, inhibition of TRPM7-mediated Ca2+ influx. Type of data set: cell-based. The note with it: antagonist, mean ± SEM. The protocol:
(§1) Measurements of [Ca^2+]i were performed as reported previously with several modifications[2],[52],[54]. HEK 293T cells (mycoplasma test negative, ATCC #CRL3216) were maintained at 37 °C and 5% CO2 in DMEM supplemented with 10% fetal calf serum, 100 µg/ml streptomycin and 100 U/ml penicillin (all from Thermo Fisher Scientific). Cells cultured in six-well plates (~60% confluence) were transfected with 2 µg/dish Trpm7 plasmid DNA and 0.1 µg/dish pG5A plasmid DNA encoding eGFP fused to Aequorea victoria aequorin, using Lipofectamine 2000 (Thermo Fisher Scientific). Twenty-four hours after transfection, the cells were washed with Mg^2+-free HEPES-buffered saline (Mg^2+-free HBS) containing 140 mM NaCl, 6 mM KCl, 0.5 mM CaCl2, 10 mM HEPES (pH 7.4) and 5 mM glucose, and mechanically resuspended in the Mg^2+-free HBS. For reconstitution of aequorin, cell suspensions were incubated with 5 µM coelenterazine (Biaffin GmbH) in the Mg^2+-free HBS for 30 min at room temperature. Cells were washed twice by centrifugation at 600 rpm for 5 min (Heraeus Pico 17 microcentrifuge, Thermo Fisher Scientific), resuspended in the Mg^2+-free HBS and aliquoted into 96-well plates (1 × 10^5 cells per well). Luminescence was detected at room temperature using a FLUOstar OPTIMA microplate reader (BMG LABTECH GmbH). To monitor the NS8593- and VER155008-induced inhibition of TRPM7-mediated Ca^2+ influx, the extracellular concentration of Ca^2+ was increased to 5 mM by injecting the CaCl2-containing Mg^2+-free HBS in the absence or presence of the inhibitors. […] To study activation by naltriben, TRPM7-transfected cells were exposed to Mg^2+-free HBS containing different concentrations of the agonist. The experiments were terminated by lysing cells with 0.1% (v/v) Triton X-100 in the Mg^2+-free HBS to record the total bioluminescence. The bioluminescence rates (counts/s) were analyzed at 1-s intervals and calibrated as [Ca^2+]i values using the following equation:1 p[Ca^2+]i=0.332588(−log(k))+5.5593 where k represents the rate of aequorin consumption, i.e., counts/s divided by the total number of counts.
(§2) To determine the IC50 values for NS8593 and VER155008 (EC50 for naltriben), the data were fitted with the following logistic equation:2 Ec=Emin+Emax+Emin/1+c^h/IC50^h where E(c) is the functional effect at the concentration c of the compound, Emin is the minimal effect, Emax is the maximal effect, IC50 (EC50) is the concentration of the compound that produces the half-maximal effect, and h is the Hill coefficient. Fitting of dose-response curves was performed using GraphPad Prism 8.4.0. Data are presented as the mean ± SEM.

Another data set deals with T2, TRPM7-A981L (Mus musculus, UniProt Q923J1, A981L).
T2 construct: expressed in transfected cells; host or cells: HEK 293T
The data set is described as above. It counts as cell-based. The note with it: antagonist, mean ± SEM. The protocol:
as §1, §2

The next data set concerns the target T3, TRPM7-A981V (Mus musculus, UniProt Q923J1, A981V).
T3 construct: expressed in transfected cells; host or cells: HEK 293T
The data set is described as above. The note with it: antagonist, mean ± SEM. It counts as cell-based. The protocol:
as §1, §2

Another data set has as its target T4, TRPM7-M991A (Mus musculus, UniProt Q923J1, M991A).
T4 construct: expressed in transfected cells; host or cells: HEK 293T
Described as above. It counts as cell-based. The note with it: for sensitivity of the mutant to the inhibitor: TRPM7-M991A. The protocol: as §1, §2

In a further data set the target is T5, TRPM7-N1098Q (Mus musculus, UniProt Q923J1, N1098Q).
T5 construct: expressed in transfected cells; host or cells: HEK 293T
Described as above. The note with it: N1098Q, antagonist, mean ± SEM. It counts as cell-based. The protocol: as §1, §2

Another data set has as its target T6, TRPM7-W1111A (Mus musculus, UniProt Q923J1, W1111A).
T6 construct: expressed in transfected cells; host or cells: HEK 293T
The data set is described as above. It counts as cell-based. The note with it: antagonist, mean ± SEM. The method, then:
as §1, §2

The target of a further data set is T7, wild-type TRPM7 (Mus musculus, UniProt Q923J1).
T7 construct: expressed in transfected cells; host or cells: HEK 293T
As to the kind of experiment: Whole-cell patch-clamp recordings in HEK 293T cells. Type of data set: cell-based. The note with it: 10 µM inhibitor, 450-s exposure, amplitude at +80 mV. The method, then: Patch-clamp experiments were performed as reported previously, with a few modifications[69],[70]. HEK 293T cells grown in 35-mm dishes to ~60% confluence were transiently transfected with Trpm7 cDNAs in the pIRES2-EGFP vector (2 µg/dish). Patch-clamp experiments were conducted 18–22 h after transfection with cells displaying EGFP fluorescence. Whole-cell currents were recorded using an EPC10 patch-clamp amplifier and PatchMaster software (Version V2x69, Harvard Bioscience). Voltages were corrected for a liquid junction potential of 10 mV. Currents were elicited by voltage ramps from –100 mV to +100 mV over 50 ms acquired at 0.5 Hz. The inward and outward current amplitudes were measured at –80 mV and +80 mV and were normalized to the cell size as pA/pF. The capacitance was measured using the automated capacitance cancellation function of EPC10. The standard extracellular solution contained 140 mM NaCl, 2.8 mM KCl, 1 mM CaCl2, 2 mM MgCl2, 10 mM HEPES-NaOH, and 11 mM glucose (all from Sigma-Aldrich). Solutions were adjusted to pH 7.2 using an FE20 pH meter (Mettler Toledo) and to 290 mOsm using a Vapro 5520 osmometer (Wescor Inc). […] For the experiment with naltriben, the intracellular solution contained 120 mM Cs-glutamate, 8 mM NaCl, 10 mM Cs-EGTA, 1.5 mM MgCl2, and 10 mM HEPES-CsOH. The intracellular solution was also adjusted to pH 7.2 and 290 mOsm. Data are presented as the mean ± SEM Unless indicated otherwise, data were compared by unpaired t-test (GraphPad Prism 8.4.0). For multiple comparisons, ordinary one-way ANOVA (GraphPad Prism 8.4.0) was used. Significance was accepted at P ≤ 0.05.
A general note: The patch-clamp technique gives a direct electrical read-out from membranes.

Data set [1] deals with the molecule itself. Kind of data set: cryo-EM structure; single-particle cryo-EM of purified TRPM7 in GDN or in MSP2N2 lipid nanodiscs (POPC:POPE:POPG), 150 mM NaCl, 20 mM Tris pH 8.0; apo or with naltriben, VER155008 or NS8593; final refinement with C4 symmetry.

T4 sequence (Q923J1 whole entry M991A): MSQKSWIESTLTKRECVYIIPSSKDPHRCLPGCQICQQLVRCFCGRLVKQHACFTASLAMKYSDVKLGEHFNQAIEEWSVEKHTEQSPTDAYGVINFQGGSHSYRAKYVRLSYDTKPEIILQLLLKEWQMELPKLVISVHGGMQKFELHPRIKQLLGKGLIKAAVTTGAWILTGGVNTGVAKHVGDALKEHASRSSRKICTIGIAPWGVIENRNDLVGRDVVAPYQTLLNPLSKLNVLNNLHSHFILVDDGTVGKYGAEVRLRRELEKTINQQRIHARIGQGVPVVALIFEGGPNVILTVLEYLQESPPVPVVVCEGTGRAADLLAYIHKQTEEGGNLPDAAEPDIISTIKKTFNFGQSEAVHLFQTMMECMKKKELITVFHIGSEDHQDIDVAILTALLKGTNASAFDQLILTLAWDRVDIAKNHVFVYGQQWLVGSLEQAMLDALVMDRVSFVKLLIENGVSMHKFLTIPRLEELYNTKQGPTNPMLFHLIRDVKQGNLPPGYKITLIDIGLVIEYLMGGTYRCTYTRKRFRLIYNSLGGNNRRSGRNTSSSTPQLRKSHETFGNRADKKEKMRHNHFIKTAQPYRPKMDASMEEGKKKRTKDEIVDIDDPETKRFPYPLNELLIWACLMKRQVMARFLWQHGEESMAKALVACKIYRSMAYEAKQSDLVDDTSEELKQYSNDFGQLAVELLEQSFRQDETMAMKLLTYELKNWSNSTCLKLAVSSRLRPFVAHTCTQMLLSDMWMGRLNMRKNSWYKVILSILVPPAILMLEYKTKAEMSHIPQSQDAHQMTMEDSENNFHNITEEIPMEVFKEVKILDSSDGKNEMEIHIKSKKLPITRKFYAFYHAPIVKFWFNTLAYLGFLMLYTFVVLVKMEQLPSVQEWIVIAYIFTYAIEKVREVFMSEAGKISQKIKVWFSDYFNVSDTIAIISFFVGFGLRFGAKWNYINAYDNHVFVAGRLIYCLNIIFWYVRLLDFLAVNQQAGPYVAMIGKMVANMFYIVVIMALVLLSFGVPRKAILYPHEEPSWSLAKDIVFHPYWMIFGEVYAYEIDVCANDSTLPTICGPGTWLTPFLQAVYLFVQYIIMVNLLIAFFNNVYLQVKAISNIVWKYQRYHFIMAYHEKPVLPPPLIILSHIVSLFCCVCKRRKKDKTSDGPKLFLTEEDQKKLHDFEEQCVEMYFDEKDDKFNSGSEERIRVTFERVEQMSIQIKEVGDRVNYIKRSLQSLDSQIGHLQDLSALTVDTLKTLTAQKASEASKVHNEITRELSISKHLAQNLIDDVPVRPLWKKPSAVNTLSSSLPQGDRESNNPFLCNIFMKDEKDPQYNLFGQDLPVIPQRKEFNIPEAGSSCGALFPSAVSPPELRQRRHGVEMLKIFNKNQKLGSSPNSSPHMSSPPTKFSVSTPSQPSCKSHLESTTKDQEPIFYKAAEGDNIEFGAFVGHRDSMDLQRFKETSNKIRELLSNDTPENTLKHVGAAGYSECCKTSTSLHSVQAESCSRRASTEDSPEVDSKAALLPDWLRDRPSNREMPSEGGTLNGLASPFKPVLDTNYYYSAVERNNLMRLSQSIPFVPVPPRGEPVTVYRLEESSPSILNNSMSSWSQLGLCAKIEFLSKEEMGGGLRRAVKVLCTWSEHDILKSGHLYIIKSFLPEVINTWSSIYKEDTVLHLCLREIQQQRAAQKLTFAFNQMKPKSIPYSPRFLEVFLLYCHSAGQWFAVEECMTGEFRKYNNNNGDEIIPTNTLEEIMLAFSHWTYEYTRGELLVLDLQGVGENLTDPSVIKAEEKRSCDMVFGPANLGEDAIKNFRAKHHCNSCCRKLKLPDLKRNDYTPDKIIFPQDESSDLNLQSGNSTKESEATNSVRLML
T5 sequence (Q923J1 whole entry N1098Q): as the sequence (Q923J1 whole entry M991A) above, with A991M, N1098Q counted along it
T1 sequence (Q923J1 whole entry): as the sequence (Q923J1 whole entry M991A) above, with A991M counted along it
T6 sequence (Q923J1 whole entry W1111A): as the sequence (Q923J1 whole entry M991A) above, with A991M, W1111A counted along it
T3 sequence (Q923J1 whole entry A981V): as the sequence (Q923J1 whole entry M991A) above, with A981V, A991M counted along it
T2 sequence (Q923J1 whole entry A981L): as the sequence (Q923J1 whole entry M991A) above, with A981L, A991M counted along it
T7 sequence (Q923J1 whole entry): as the sequence (Q923J1 whole entry M991A) above, with A991M counted along it

What is called IC50 is the concentration needed to halve the response being measured. A high value points to weaker potency. As for `N#Cc1ccc(COC[C@H]2O[C@@H](n3c(NCc4ccc(Cl)c(Cl)c4)nc4c(N)ncnc43)[C@H](O)[C@@H]2O)cc1` [VER155008], the Hill coefficient entry at TRPM7 WT is recorded as “–2.07 ± 0.41”; at TRPM7-N1098Q, “–1.32 ± 0.20”. Also, the concentration for half-maximal inhibition (IC50) against TRPM7 WT was 0.23 ± 0.03 µM; at TRPM7-A981L it was about 25 µM; against TRPM7-A981V, “not feasible to calculate the IC50 value”; against TRPM7-M991A (M991A, antagonist, no added second inhibitor, mean ± SEM) it was “not feasible to calculate the IC50 value”; against TRPM7-N1098Q, 1.71 ± 0.25 µM; at TRPM7-W1111A, about 10 µM. For the same molecule, the results for the “sensitivity of the mutant to the inhibitor” value at TRPM7-M991A (0.1-10 μM VER155008 (response to reviewers)) and at TRPM7-M991A (1–10 µM VER) were “no sensitivity” and “not sensitive”, respectively. The “amplitude of TRPM7-mediated currents in the presence of inhibitor” value at wild-type TRPM7 is on record as “greatly reduced”.

B1: C-terminally truncated mouse TRPM7 (residues 1–1280), wild type (natural protein, UniProt Q923J1 1-1280, looked up)
chain: MSQKSWIESTLTKRECVYIIPSSKDPHRCLPGCQICQQLVRCFCGRLVKQHACFTASLAMKYSDVKLGEHFNQAIEEWSVEKHTEQSPTDAYGVINFQGGSHSYRAKYVRLSYDTKPEIILQLLLKEWQMELPKLVISVHGGMQKFELHPRIKQLLGKGLIKAAVTTGAWILTGGVNTGVAKHVGDALKEHASRSSRKICTIGIAPWGVIENRNDLVGRDVVAPYQTLLNPLSKLNVLNNLHSHFILVDDGTVGKYGAEVRLRRELEKTINQQRIHARIGQGVPVVALIFEGGPNVILTVLEYLQESPPVPVVVCEGTGRAADLLAYIHKQTEEGGNLPDAAEPDIISTIKKTFNFGQSEAVHLFQTMMECMKKKELITVFHIGSEDHQDIDVAILTALLKGTNASAFDQLILTLAWDRVDIAKNHVFVYGQQWLVGSLEQAMLDALVMDRVSFVKLLIENGVSMHKFLTIPRLEELYNTKQGPTNPMLFHLIRDVKQGNLPPGYKITLIDIGLVIEYLMGGTYRCTYTRKRFRLIYNSLGGNNRRSGRNTSSSTPQLRKSHETFGNRADKKEKMRHNHFIKTAQPYRPKMDASMEEGKKKRTKDEIVDIDDPETKRFPYPLNELLIWACLMKRQVMARFLWQHGEESMAKALVACKIYRSMAYEAKQSDLVDDTSEELKQYSNDFGQLAVELLEQSFRQDETMAMKLLTYELKNWSNSTCLKLAVSSRLRPFVAHTCTQMLLSDMWMGRLNMRKNSWYKVILSILVPPAILMLEYKTKAEMSHIPQSQDAHQMTMEDSENNFHNITEEIPMEVFKEVKILDSSDGKNEMEIHIKSKKLPITRKFYAFYHAPIVKFWFNTLAYLGFLMLYTFVVLVKMEQLPSVQEWIVIAYIFTYAIEKVREVFMSEAGKISQKIKVWFSDYFNVSDTIAIISFFVGFGLRFGAKWNYINAYDNHVFVAGRLIYCLNIIFWYVRLLDFLAVNQQAGPYVMMIGKMVANMFYIVVIMALVLLSFGVPRKAILYPHEEPSWSLAKDIVFHPYWMIFGEVYAYEIDVCANDSTLPTICGPGTWLTPFLQAVYLFVQYIIMVNLLIAFFNNVYLQVKAISNIVWKYQRYHFIMAYHEKPVLPPPLIILSHIVSLFCCVCKRRKKDKTSDGPKLFLTEEDQKKLHDFEEQCVEMYFDEKDDKFNSGSEERIRVTFERVEQMSIQIKEVGDRVNYIKRSLQSLDSQIGHLQDLSALTVDTLKTLTAQKASEASKVHNEITRELSISKHLAQNLID
notes: mouse TRPM7 (Trpm7 cDNA NM_021450), truncated C-terminally, protein residues 1–1280; lacks the kinase domain; A thrombin cleavage site (LVPRG) stands between GFP and TRPM7; the purification as described has no thrombin step; also called TRPM7_(Closed); TRPM7_(NTB-open); source: HEK 293S GnTI- cells, baculovirus-transduced (pEG-BacMam), purified (strep resin, SEC); in GDN or reconstituted in …
Usually stoichiometry N stands for the number of molecules, sites or subunits per partner or assembly. For the molecule B1, the “stoichiometry N” value in data set [1] was determined as 4.

B2: C-terminally truncated mouse TRPM7 (residues 1–1280) with the gain-of-function mutation N1098Q (natural protein, UniProt Q923J1 1-1280, looked up)
chain: MSQKSWIESTLTKRECVYIIPSSKDPHRCLPGCQICQQLVRCFCGRLVKQHACFTASLAMKYSDVKLGEHFNQAIEEWSVEKHTEQSPTDAYGVINFQGGSHSYRAKYVRLSYDTKPEIILQLLLKEWQMELPKLVISVHGGMQKFELHPRIKQLLGKGLIKAAVTTGAWILTGGVNTGVAKHVGDALKEHASRSSRKICTIGIAPWGVIENRNDLVGRDVVAPYQTLLNPLSKLNVLNNLHSHFILVDDGTVGKYGAEVRLRRELEKTINQQRIHARIGQGVPVVALIFEGGPNVILTVLEYLQESPPVPVVVCEGTGRAADLLAYIHKQTEEGGNLPDAAEPDIISTIKKTFNFGQSEAVHLFQTMMECMKKKELITVFHIGSEDHQDIDVAILTALLKGTNASAFDQLILTLAWDRVDIAKNHVFVYGQQWLVGSLEQAMLDALVMDRVSFVKLLIENGVSMHKFLTIPRLEELYNTKQGPTNPMLFHLIRDVKQGNLPPGYKITLIDIGLVIEYLMGGTYRCTYTRKRFRLIYNSLGGNNRRSGRNTSSSTPQLRKSHETFGNRADKKEKMRHNHFIKTAQPYRPKMDASMEEGKKKRTKDEIVDIDDPETKRFPYPLNELLIWACLMKRQVMARFLWQHGEESMAKALVACKIYRSMAYEAKQSDLVDDTSEELKQYSNDFGQLAVELLEQSFRQDETMAMKLLTYELKNWSNSTCLKLAVSSRLRPFVAHTCTQMLLSDMWMGRLNMRKNSWYKVILSILVPPAILMLEYKTKAEMSHIPQSQDAHQMTMEDSENNFHNITEEIPMEVFKEVKILDSSDGKNEMEIHIKSKKLPITRKFYAFYHAPIVKFWFNTLAYLGFLMLYTFVVLVKMEQLPSVQEWIVIAYIFTYAIEKVREVFMSEAGKISQKIKVWFSDYFNVSDTIAIISFFVGFGLRFGAKWNYINAYDNHVFVAGRLIYCLNIIFWYVRLLDFLAVNQQAGPYVMMIGKMVANMFYIVVIMALVLLSFGVPRKAILYPHEEPSWSLAKDIVFHPYWMIFGEVYAYEIDVCANDSTLPTICGPGTWLTPFLQAVYLFVQYIIMVNLLIAFFNQVYLQVKAISNIVWKYQRYHFIMAYHEKPVLPPPLIILSHIVSLFCCVCKRRKKDKTSDGPKLFLTEEDQKKLHDFEEQCVEMYFDEKDDKFNSGSEERIRVTFERVEQMSIQIKEVGDRVNYIKRSLQSLDSQIGHLQDLSALTVDTLKTLTAQKASEASKVHNEITRELSISKHLAQNLID
notes: mouse TRPM7 (Trpm7 cDNA NM_021450), truncated C-terminally, protein residues 1–1280, with N1098Q; Same construct as m1 with the point mutation; a thrombin cleavage site (LVPRG) stands between GFP and TRPM7, no thrombin step is described; also called TRPM7-N1098Q; TRPM7-N1098Q_(open); source: HEK 293S GnTI- cells, baculovirus-transduced (pEG-BacMam), purified (strep resin, SEC); in GDN
As to B2, the binding result in data set [1] is “binds”.
